Data as given in BindingDB's records for doi:10.1016/j.bmcl.2012.05.078 (University of Milan, 2012).

Assay: Inhibition of Met-triggered cell scattering in HGF-stimulated MDCK cells preincubated for overnight before HGF challenge measured after 24 to 48 hrs
`Cc1[nH]c(/C=C2\C(=O)Nc3ccc(S(=O)(=O)N(C)c4cccc(Cl)c4)cc32)c(C)c1C(=O)N1CCN(C)CC1` [(3Z)-N-(3-CHLOROPHENYL)-3-({3,5-DIMETHYL-4-[(4-METHYLPIPERAZIN-1-YL)CARBONYL]-1H-PYRROL-2-YL}METHYLENE)-N-METHYL-2-OXOINDOLINE-5-SULFONAMIDE] showed an IC50 of 200 nM.
In the case of `O=C(Cc1cc(C(F)(F)F)cc(C(F)(F)F)c1)N[C@@H](Cc1ccccc1)C(=O)Nc1ccc(-c2cn3c(n2)sc2ccccc23)cc1`, the IC50 is reported as 200 nM.
With `O=C(Cc1cc(C(F)(F)F)cc(C(F)(F)F)c1)NC(Cc1ccccc1)c1cn(-c2ccc(-c3cn4c(n3)sc3ccccc34)cc2)nn1` (centres undefined) the IC50 was 600 nM.
`O=C(Cc1cc(C(F)(F)F)cc(C(F)(F)F)c1)N[C@H](Cc1ccccc1)C(=O)Nc1ccc(-c2cn3c(n2)sc2ccccc23)cc1` showed an IC50 of 200 nM.
